The values that follow come from US3933784A, “Des-(ser^13)-srif and intermediates” (American Home Products Corporation, priority 1975, dated 1976).

In the test the test system is growth hormone. Kind of test: Growth hormone activity in nembutal-treated rats, growth hormone level by radioimmunoassay. It is filed as in vivo. The following applies: rats 200-250 g, nembutal 50 mg/kg i.p., 5 minutes later compound 800 μg per rat s.c. in saline; blood taken 15 minutes after injection; control rats 159 ± 16 ng/ml. How it is done:
After hydrolysis of the peptide in methanesulfonic acid for 18 hours at 120°C in an evacuated sealed tube, the following values for the amino acid residues are obtained: Ala 1.00, Gly 1.00, Cys 1.59, Lys 1.88, Asp 0.99, Phe 3.05, Trp (present, but not quantitated), Thr 1.76. The growth hormone activity of the compound of Example 3 was determined by injecting rats weighing about 200-250 g first with nembutal intraperitoneally at a dose of 50 mg/kg then after 5 minutes injecting the rats subcutaneously with a solution of the compound of Example 3 in saline at a dose of 800 μg per rat. Blood samples are taken 15 minutes after injection with the compound of Example 3 and the growth hormone level determined by radioimmunoassay.

Positions of bridges follow the written chain, without caps; N, C: chain ends. No end group written: not given here.

Consider “L-alanylglycyl-L-cysteinyl-L-lysyl-L-asparaginyl-L-phenylalanyl-L-phenylalanyl-L-tryptophyl-L-lysyl-L-threonyl-L-phenylalanyl-L-threonyl-L-cysteine-(3-13 cyclic) disulfide (AGCKNFFWKTFTC; disulfide 3-13; UniProt P61278 103-116, looked up, variant S13*) [Example 3, tridecapeptide analog of somatostatin in which the amino acid in the thirteen position has been omitted]”, for which the growth hormone level turned out to be 49 ± 7 ng/mL.
